Where “and” joins values, the source holds several entries; their conditions need not be identical. Equal values may be shown once.
Key:
B16F10 melanoma = experiment: Melanoma-colony formation in the lungs; type: in vivo, mice; settings: 300 mg/kg i.p. daily for 14 days from day five; lungs excised day 26
Experimental: Murine B16F10 melanoma cell line with a strong metastatic property to form tumour colonies in the lungs was obtained from Dr. Longenecker, Department of Immunology, University of Alberta. Such cell line is well recognized and readily available as reported in Miura et al, supra. The cells were grown in T-75 flasks in dulbecco's MEM available from Gipco Lab Inc., Grand Island, New York, supplemented with 10% fetal calf serum, also obtained from Gipco, penicillin (100 »/ml) and streptomycin (100 »g/ml). The cells were incubated at 37°C in humidified atmosphere of 5% CO₂ in air. The cells were harvested by applying a thin layer of 0.25% trypsin solution in EDTA, washed and resuspended in cold N saline solution. Viable cells were identified by trypan blue dye exclusion and counted. The cell suspension was diluted to the desired concentration. Three groups of mice were studied using a control 4-S-CAP and N-Ac-4-S-CAP as the active agents in the treatment. On day zero, the mice were inoculated via the lateral tail vein with 5 x 10⁴ cells in 0.2 ml of N saline. The test drugs were dissolved in normal saline, sterilized by membrane filtration, and administered in a dose of 300 mg/Kg (4-S-CAP) or 900 mg/Kg (N-Ac-4-S-CAP); starting on day five, the control solution or drug was injected i.p. daily for 14 days. On day 26, the mice were killed by cervical dislocation, their lungs were removed, and the number of melanoma colonies was counted under a dissecting microscope. The results were expressed as percentage reduction in the number of colonies: [a - b/a] x 100, where a = colonies in control group and b = colonies in experimental group.

[1] = acute toxicity evaluated from 100 to 1600 mg/Kg; Miura et al; cited from earlier work
plasma MAO = target: T1, plasma MAO (Bos taurus, UniProt Q29437); experiment: Enzyme kinetics with monoamineoxidase (substrate disappearance by HPLC, Lineweaver-Burk); type: biochemical; settings: result in words
T1 construct: purchased Sigma Chemical Co. (St. Louis, MO, USA)
T1 sequence (Q29437 17-762): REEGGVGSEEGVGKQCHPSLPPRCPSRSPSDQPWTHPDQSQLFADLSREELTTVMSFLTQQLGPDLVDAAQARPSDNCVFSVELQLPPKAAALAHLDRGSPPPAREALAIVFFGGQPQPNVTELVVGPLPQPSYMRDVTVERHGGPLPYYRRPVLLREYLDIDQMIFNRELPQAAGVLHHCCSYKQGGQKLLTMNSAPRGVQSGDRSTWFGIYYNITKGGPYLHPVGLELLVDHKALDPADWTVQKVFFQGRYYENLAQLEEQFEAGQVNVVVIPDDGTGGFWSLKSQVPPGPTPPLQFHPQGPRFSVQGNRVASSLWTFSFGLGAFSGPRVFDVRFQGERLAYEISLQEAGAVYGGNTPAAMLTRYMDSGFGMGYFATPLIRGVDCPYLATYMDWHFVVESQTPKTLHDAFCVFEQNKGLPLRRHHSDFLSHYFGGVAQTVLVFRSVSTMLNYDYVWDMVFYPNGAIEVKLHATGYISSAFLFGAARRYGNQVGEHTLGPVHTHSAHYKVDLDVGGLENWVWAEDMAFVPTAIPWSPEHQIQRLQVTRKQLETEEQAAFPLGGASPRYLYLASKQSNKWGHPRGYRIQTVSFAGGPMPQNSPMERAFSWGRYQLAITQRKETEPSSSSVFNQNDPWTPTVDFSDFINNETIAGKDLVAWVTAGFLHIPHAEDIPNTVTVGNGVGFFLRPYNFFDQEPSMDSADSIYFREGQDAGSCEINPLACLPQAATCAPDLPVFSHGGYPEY
Experimental: (§1) Mushroom tyrosinase (400 units/mg) and plasma MAO (1000 units/gm) were obtained from Sigma Chemical Co. (St. Louis, MO, USA). A reaction mixture consisted of a substrate of 7 to 8 different concentrations (40 to 500 »M for mushroom tyrosinase and 20 to 200 »M for MAO) and of either mushroom tyrosinase (2.5 »g) or MAO (10 »g) in 1.0 mL of 0.05 M sodium phosphate buffer, pH 6.8 and 7.4 respectively. The reactions were carried out at 37°C in a shaking water bath, and stopped by taking 100 »L of the reaction mixture and adding it to 900 »L of 0.4 M HCLO₄. The disappearance of substrate was followed using HPLC (high pressure liquid chromatography) Km and Vmax values were calculated from the Lineweaver-Burk plots.

B16 melanoma = experiment: In vivo growth inhibition of s.c. inoculated B16 melanoma; parameters: species or system C57BL/6J mice; settings: 200 mg/Kg i.p. daily for nine days, day 12 or 13
Experimental: The in vivo antimelanoma effect of the compounds were evaluated by percent growth inhibition of inoculated tumour (%g.i.). The percent g.i. was computed from the mean tumour volume at day 12 or 13 of the experiments; i.e., 100 x (1- treated group/control group). […] To further examine whether a minimal dose of N-Ac-4-S-CAP, 200 mg/Kg has an antimelanoma effect, three groups of mice were treated with N-Ac-4-S-CAP. […] One of the advantages of N-Ac-4-S-CAP over 4-S-CAP was that it had much higher LD⁵⁰ (as high as 1400 mg/Kg of body weight, and therefore a greater range of safety).

melanocytes = experiment: Light and electron microscopy of melanocytes in regrowing hair follicles; type: in vivo, mice; settings: for electron microscopy of hair follicles: melanocytes and melanosomes: i.p. injection for 10 days
Experimental: In six groups of 4 mice (1 control and 1 for each compound) were treated daily with the control or compound injected i.p. The compounds tested were 4-S-CAP, N-Ac-4-S-CAP and α-Me-4-S-CAP. Samples of skin and regrowing hair follicles were excised under brief general anaesthesia on day 10 (late anagen phase), fixed in Karnovsky's solution (2.5% glutaraldehyde and 2.5% paraformaldehyde in 0l1 M cacodylate buffer), and refixed in 1% osmium tetroxide in cadodylate buffer. Tissues were stained en bloc with 1.5% uranyl acetate in o.1 M veronal buffer for 30min, dehydrated in graded ethanol solutions, embedded in epoxy resin, and sectioned with a Potter-Blum ultramicrotome MT II. Sections 1.0 »m thick were stained with methylene blue for light microscopy, thin sections were stained with led citrate for electron microscopy.

Mushroom tyrosinase = Mushroom tyrosinase (Agaricus bisporus, UniProt C7FF04); experiment: Enzyme kinetics with tyrosinase (substrate disappearance by HPLC, Lineweaver-Burk); type: biochemical; settings: result in words
Experimental: as §1

follicular melanocytes = experiment: Depigmentation of new hair after plucking (PTCA/eumelanin content of hair follicles); type: in vivo, C57BL/6J black mice; settings: for PTCA Content / Depigmentation: hair harvested day 22
Experimental: Breeding pairs of C57BL/6J black mice were purchased from Jackson Laboratory, Bar Harbor, Maine. Female progeny were used in this testing when approximately 8 weeks old and weighing 17 grams.
Black hairs were plucked manually from the back of the mice to initiate new anagen growth and activate follicular melanocytes with increased tyrosinase activity. Thirty mice were randomized into 6 groups of 5 (1 control and 1 for each compound). Starting on day 1, daily for 14 days the agent was injected i.p. or was infiltrated s.c. in an area where hair follicles had been plucked; the dose was 300 mg/kg body weight.
In the same 30 mice, hair follicles were harvested on day 22 (early telogen phase) and their eumelanin content analyzed. Details of the assay, including chemical degration of melanin and high-performance liquid chromatography (HPLC) were as described in Ito et al, "Quantitative Analysis of Eumelanin and Pheomelanin in Hair and Melanosomes" J. Invest. Dermatol 80:268-272, 1983. Briefly, a 10-mg hair sample is homogenized in water at a concentration of 10 mg/ml; the 200-»l homogenate is transferred to a screw-capped test tube, mixed with 1M H₂SO₄ (800 »L) and oxidized with 3% KMnO₄. The product, pyrrole-2,3,5-tricarboxylic acid (PTCA), is analyzed by HPLC with a UVL detector; samples are measured in duplicate. The eumelanin content is expressed as PTCA (ng/mg) against the PCTA content of BALB/c albino mice as control (≦ 10 ng/mg, the background value with our method, in which 1 ng corresponds roughly to a eumelanin content of 50 ng), and the degree of depigmentation is expressed as a percentage: (PTCA content of control sampleminusPTCA content of experimental sample)/(PCTA content of control sample) x 100 [formula] .

[2] = Acute toxicity / lethal dose and maximum tolerable dose; settings: mouse, in vivo
Experimental: 3:1-85 1972. In accordance with this Protocol, ten to fifteen mice were used in each test group. They were weighed and randomized at day one after s.c. inoculation of B16 melanoma cells. From day five, the phenolic melanin precursors were administered i.p. daily for nine days. The test compounds were dissolved in normal saline, and sterilized by heating to 100°C for 2 minutes. […] They were administered i.p. with the following doses: 400 mg/Kg - 4-S-CAP; 200 to 300 mg/Kg - 4-S-CAP; and 200 to 1200 mg/Kg - N-Ac-4-S-CAP. A catalytic amount of L-dopa, 25 mg/Kg and antidecarboxylase, carbidopa, 400 mg/Kg, were also administered. Carbidopa was given one hour prior to L-dopa administration. DTIC (NSC 4538) was used as a control drug at a dose of 60 mg/Kg. Acute toxicity of 4-S-CP and 4-S-CAP was evaluated from 100 to 1600 mg/Kg.
The B16 mouse melanoma was maintained by s.c. inoculation of tumour cells into the back of C57BL7J mice (5 to 6 weeks, female). […] Briefly, excised tumours were homogenized in normal saline. The homogenized tumour cells were then passed through a sterile 80 mesh stainless steel screen, washed with normal saline, centrifuged (500 g. for 10 minutes) and resuspended in normal saline. Suspensions of viable melanoma cells at the concentration of 1 x 10⁶ per 0.1 ml were inoculated s.c. into both the right and left inguinal areas of C57BL/6J mice (female, 5 to 6 weeks old, 18 to 20 gm).

[3] = Route s.c., 300 mg/kg daily for 14 days
[4] = Route s.c., 300 mg/kg daily for 14 days, 300 mg/kg
[5] = Route: i.p., 300 mg/kg daily for 14 days
[6] = Route: i.p., 300 mg/kg daily for 14 days, 300 mg/kg

Mushroom tyrosinase, sequence (C7FF04 1-392): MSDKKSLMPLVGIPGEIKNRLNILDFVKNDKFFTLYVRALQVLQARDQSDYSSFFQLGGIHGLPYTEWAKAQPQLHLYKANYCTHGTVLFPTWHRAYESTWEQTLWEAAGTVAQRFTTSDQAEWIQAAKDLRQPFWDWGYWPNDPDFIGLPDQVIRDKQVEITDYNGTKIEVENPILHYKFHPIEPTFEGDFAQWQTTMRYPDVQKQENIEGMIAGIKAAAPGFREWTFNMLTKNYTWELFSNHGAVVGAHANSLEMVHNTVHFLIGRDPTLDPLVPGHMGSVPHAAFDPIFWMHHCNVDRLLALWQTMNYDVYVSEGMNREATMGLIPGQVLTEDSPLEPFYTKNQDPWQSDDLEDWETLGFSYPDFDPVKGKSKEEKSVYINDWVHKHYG

Compound | lethal dose [1] [mg/kg] | electron microscopy of hair follicles: melanocytes and melanosomes (melanocytes) | PTCA Content (follicular melanocytes; [3]) [ng/mg] | Depigmentation (follicular melanocytes; [4]) | PTCA Content (follicular melanocytes; [5]) [ng/mg] | Depigmentation (follicular melanocytes; [6]) | Depigmentation (follicular melanocytes; [3]) [%] | Depigmentation (follicular melanocytes; [5]) [%] | further results
NCCSc1ccc(O)cc1 [4-S-CAP, 4-S-cysteaminylphenol, reference compound] | 400 | contained immature melanosomes at stages II and III | 458.3 ± 107.6 | 47% and 46.9% | 146.1 ± 72.4 | 87% and 86.6% | – | – | No. of Colonies % control (B16F10 melanoma): 30% and 32.4%; No. of Colonies per pair of lungs (B16F10 melanoma): 28.0 ± 14.5; substrate for plasma MAO (plasma MAO): a substrate for both plasma MAO and tyrosinase; %Gi (B16 melanoma; Experiment I): 54.0%; Tumour Volume (B16 melanoma; Experiment I): 239 ± 39 mm^3; %Gi (B16 melanoma; Experiment II): 25.1%; Tumour Volume (B16 melanoma; Experiment II): 405 ± 61 mm^3; light microscopy of hair follicles: functioning melanocytes and melanin pigments (melanocytes; i.p. daily, day 10 (late anagen phase)): the hair follicles contained functioning melanocytes and melanin pigments transferred into keratonocytes, although they were much sparser than in the controls; tyrosinase substrate (Mushroom tyrosinase): a substrate for both plasma MAO and tyrosinase
N[C@@H](CSc1ccc(O)cc1)C(=O)O [4-S-CP, 4-S-cysteinylphenol] | 600 | – | – | – | – | – | – | – | –
NCCCSc1ccc(O)cc1 [4-S-HomoCAP, 4-S-homo-CAP] | – | – | 397.7 ± 279.3 | – | 956.7 ± 77.9 | – | 63.5 | 12.1 | –
CN(C)CCSc1ccc(O)cc1 [N,N-DiMe-4-S-CAP, N,N'-dimethyl-4-S-CAP] | – | – | 1023.4 ± 110.1 | – | 1009.0 ± 193.5 | – | 6.1 | 7.3 | visible pigmentation of new hair (follicular melanocytes; i.p. or s.c. route, result in words): no visible changes in pigmentation in new follicles
CC(N)CSc1ccc(O)cc1 (stereo not drawn) [α-Me-4-S-CAP, α-methyl-4-S-CAP] | – | contained immature melanosomes at stages II and III | 557.9 ± 47.2 | 58% and 57.9% | 121.3 ± 81.9 | 89% and 88.9% | – | – | per single dose toxicity levels [2]: ~500 mg/kg of body weight; side-effects (follicular melanocytes; 300 mg/kg daily for 14 days, i.p. or s.c., irritation seen after s.c. administration): some irritation of the skin in the plucked area
